Data from ChEMBL document CHEMBL1649329, “Differential selection of single-step AmpC or efflux mutants of Pseudomonas aeruginosa by using cefepime, ceftazidime, or ceftobiprole” (2010).
≈ marks a conversion by molar mass, not a printed value.

Experiments:
Type in all cases: functional
[1] = system: Pseudomonas aeruginosa; assay: Antimicrobial activity against Pseudomonas aeruginosa OC 11678 expressing 32 fold elevated AmpC expression by broth macrodilution method
[2] = system: Pseudomonas aeruginosa; assay: Antimicrobial activity against Pseudomonas aeruginosa OC 11678 expressing 34 fold elevated AmpC expression by broth macrodilution method
[3] = system: Pseudomonas aeruginosa; assay: Antimicrobial activity against Pseudomonas aeruginosa OC 12070 expressing 107 fold elevated mexX expression and 155 fold elevated mexY expression by broth macrodilution method
[4] = system: Pseudomonas aeruginosa; assay: Antimicrobial activity against wild type Pseudomonas aeruginosa PAO1 by broth macrodilution method
[5] = system: Pseudomonas aeruginosa; assay: Antimicrobial activity against Pseudomonas aeruginosa OC 11678 expressing 36 fold elevated AmpC expression by broth macrodilution method
[6] = system: Pseudomonas aeruginosa; assay: Antimicrobial activity against Pseudomonas aeruginosa OC 11678 expressing 31 fold elevated AmpC expression by broth macrodilution method
[7] = system: Pseudomonas aeruginosa; assay: Antimicrobial activity against Pseudomonas aeruginosa OC 11678 expressing 40 fold elevated AmpC expression by broth macrodilution method
[8] = system: Pseudomonas aeruginosa; assay: Antimicrobial activity against Pseudomonas aeruginosa OC 11678 expressing 15 fold elevated AmpC expression by broth macrodilution method
[9] = system: Pseudomonas aeruginosa; assay: Antimicrobial activity against Pseudomonas aeruginosa OC 12070 expressing 12 fold elevated mexX expression and 25 fold elevated mexY expression by broth macrodilution method
[10] = system: Pseudomonas aeruginosa; assay: Antimicrobial activity against Pseudomonas aeruginosa OC 12070 expressing 11 fold elevated mexX expression and 10 fold elevated mexY expression by broth macrodilution method
[11] = system: Pseudomonas aeruginosa; assay: Antimicrobial activity against Pseudomonas aeruginosa OC 11678 expressing 9 fold elevated AmpC expression by broth macrodilution method
[12] = system: Pseudomonas aeruginosa; assay: microbe, parasite or virus in culture; details: OC 11678
Description: Antimicrobial activity against Pseudomonas aeruginosa OC 11678 expressing 27 fold elevated mexX expression and 16 fold elevated mexY expression by broth macrodilution method

[13] = system: Pseudomonas aeruginosa; assay: Antimicrobial activity against Pseudomonas aeruginosa OC 12070 expressing 7 fold elevated AmpC expression by broth macrodilution method
[14] = system: Pseudomonas aeruginosa; assay: Antimicrobial activity against Pseudomonas aeruginosa OC 12070 expressing 36 fold elevated mexX expression and 39 fold elevated mexY expression by broth macrodilution method
[15] = system: Pseudomonas aeruginosa; assay: Antimicrobial activity against wild type Pseudomonas aeruginosa ATCC 27853 by broth macrodilution method
[16] = system: Pseudomonas aeruginosa; assay: Antimicrobial activity against Pseudomonas aeruginosa OC 11678 expressing 29 fold elevated AmpC expression by broth macrodilution method
[17] = system: Pseudomonas aeruginosa; assay: Antimicrobial activity against Pseudomonas aeruginosa OC 12070 expressing 11 fold elevated AmpC expression by broth macrodilution method
[18] = system: Pseudomonas aeruginosa; assay: Antimicrobial activity against Pseudomonas aeruginosa OC 12261 by broth macrodilution method
[19] = system: Pseudomonas aeruginosa; assay: Antimicrobial activity against Pseudomonas aeruginosa OC 11492 by broth macrodilution method
[20] = system: Pseudomonas aeruginosa; assay: Antimicrobial activity against Pseudomonas aeruginosa OC 12070 expressing 5 fold elevated AmpC expression by broth macrodilution method
[21] = system: Pseudomonas aeruginosa; assay: Antimicrobial activity against Pseudomonas aeruginosa OC 12070 expressing 65 fold elevated mexX expression and 106 fold elevated mexY expression by broth macrodilution method
[22] = system: Pseudomonas aeruginosa; assay: Antimicrobial activity against Pseudomonas aeruginosa OC 11053 by broth macrodilution method
[23] = system: Pseudomonas aeruginosa; assay: Antimicrobial activity against Pseudomonas aeruginosa OC 11678 expressing 33 fold elevated AmpC expression by broth macrodilution method
[24] = system: Pseudomonas aeruginosa; assay: Antimicrobial activity against Pseudomonas aeruginosa OC 11678 by broth macrodilution method
[25] = system: Pseudomonas aeruginosa; assay: Antimicrobial activity against Pseudomonas aeruginosa OC 12070 expressing 27 fold elevated mexX expression and 49 fold elevated mexY expression by broth macrodilution method
[26] = system: Pseudomonas aeruginosa; assay: Antimicrobial activity against Pseudomonas aeruginosa OC 4351 by broth macrodilution method
[27] = system: Pseudomonas aeruginosa; assay: Antimicrobial activity against wild type Pseudomonas aeruginosa
[28] = system: Pseudomonas aeruginosa; assay: Antimicrobial activity against Pseudomonas aeruginosa OC 12070 expressing 10 fold elevated mexX expression and 23 fold elevated mexY expression by broth macrodilution method
[29] = system: Pseudomonas aeruginosa; assay: Antimicrobial activity against Pseudomonas aeruginosa OC 11678 expressing 30 fold elevated AmpC expression by broth macrodilution method
[30] = system: Pseudomonas aeruginosa; assay: Antimicrobial activity against Pseudomonas aeruginosa OC 12070 expressing 8 fold elevated AmpC expression by broth macrodilution method
[31] = system: Pseudomonas aeruginosa; assay: Antimicrobial activity against Pseudomonas aeruginosa OC 11678 expressing 71 fold elevated mexX expression and 43 fold elevated mexY expression by broth macrodilution method
[32] = system: Pseudomonas aeruginosa; assay: Antimicrobial activity against Pseudomonas aeruginosa OC 12070 expressing 151 fold elevated mexX expression and 127 fold elevated mexY expression by broth macrodilution method
[33] = system: Pseudomonas aeruginosa; assay: Antimicrobial activity against Pseudomonas aeruginosa OC 11678 expressing 31 fold elevated mexX expression and 17 fold elevated mexY expression by broth macrodilution method
[34] = system: Pseudomonas aeruginosa; assay: Antimicrobial activity against Pseudomonas aeruginosa OC 12070 by broth macrodilution method
[35] = system: Pseudomonas aeruginosa; assay: Antimicrobial activity against Pseudomonas aeruginosa OC 12070 expressing 37 fold elevated AmpC expression by broth macrodilution method

| Compound | MIC [1] [µg/mL] | MIC [2] [µg/mL] | MIC [3] [µg/mL] | MIC [4] [µg/mL] | MIC [5] [µg/mL] | MIC [6] [µg/mL] | MIC [7] [µg/mL] | MIC [8] [µg/mL] | MIC [9] [µg/mL] | MIC [10] [µg/mL] | MIC [11] [µg/mL] | MIC [12] [µg/mL] | MIC [13] [µg/mL] | MIC [14] [µg/mL] | MIC [15] [µg/mL] | MIC [16] [µg/mL] | MIC [17] [µg/mL] | MIC [18] [µg/mL] | MIC [19] [µg/mL] | MIC [20] [µg/mL] | further results |
| --- | --- | --- | --- | --- | --- | --- | --- | --- | --- | --- | --- | --- | --- | --- | --- | --- | --- | --- | --- | --- | --- |
| CC(C)(O/N=C(\C(=O)N[C@@H]1C(=O)N2C(C(=O)[O-])=C(C[n+]3ccccc3)CS[C@H]12)c1csc(N)n1)C(=O)O [CEFTAZIDIME] | 128 (≈ 234 µM) | 128 (≈ 234 µM) | 16 (≈ 29.3 µM) | 1 (≈ 1.83 µM) | 64 (≈ 117 µM) | 128 (≈ 234 µM) | 128 (≈ 234 µM) | 64 (≈ 117 µM) | 4 (≈ 7.32 µM) | 2 (≈ 3.66 µM) | 64 (≈ 117 µM) | 4 (≈ 7.32 µM) | 64 (≈ 117 µM) | 4 (≈ 7.32 µM) | 2 (≈ 3.66 µM) | 128 (≈ 234 µM) | 32 (≈ 58.5 µM) | 4 (≈ 7.32 µM) | 2 (≈ 3.66 µM) | 16 (≈ 29.3 µM) | MIC [21]: 16 µg/mL (≈ 29.3 µM); MIC [22]: 1 µg/mL (≈ 1.83 µM); MIC [23]: 128 µg/mL (≈ 234 µM); MIC [24]: 4 µg/mL (≈ 7.32 µM); MIC [25]: 4 µg/mL (≈ 7.32 µM); MIC [26]: 1 µg/mL (≈ 1.83 µM); MIC50 [27]: 2 µg/mL (≈ 3.66 µM); MIC [28]: 8 µg/mL (≈ 14.6 µM); MIC [29]: 128 µg/mL (≈ 234 µM); MIC [30]: 32 µg/mL (≈ 58.5 µM); MIC [31]: 32 µg/mL (≈ 58.5 µM); MIC [32]: 8 µg/mL (≈ 14.6 µM); MIC [33]: 4 µg/mL (≈ 7.32 µM); MIC [34]: 2 µg/mL (≈ 3.66 µM); MIC [35]: 32 µg/mL (≈ 58.5 µM) |
| CO/N=C(\C(=O)N[C@@H]1C(=O)N2C(C(=O)[O-])=C(C[N+]3(C)CCCC3)CS[C@H]12)c1csc(N)n1 [CEFEPIME] | 32 (≈ 66.6 µM) | 32 (≈ 66.6 µM) | 16 (≈ 33.3 µM) | 2 (≈ 4.16 µM) | 32 (≈ 66.6 µM) | 32 (≈ 66.6 µM) | 32 (≈ 66.6 µM) | 32 (≈ 66.6 µM) | 8 (≈ 16.6 µM) | 8 (≈ 16.6 µM) | 32 (≈ 66.6 µM) | 8 (≈ 16.6 µM) | 16 (≈ 33.3 µM) | 8 (≈ 16.6 µM) | 2 (≈ 4.16 µM) | 32 (≈ 66.6 µM) | 16 (≈ 33.3 µM) | 4 (≈ 8.32 µM) | 4 (≈ 8.32 µM) | 8 (≈ 16.6 µM) | MIC [21]: 16 µg/mL (≈ 33.3 µM); MIC [22]: 4 µg/mL (≈ 8.32 µM); MIC [23]: 32 µg/mL (≈ 66.6 µM); MIC [24]: 8 µg/mL (≈ 16.6 µM); MIC [25]: 8 µg/mL (≈ 16.6 µM); MIC [26]: 2 µg/mL (≈ 4.16 µM); MIC50 [27]: 4 µg/mL (≈ 8.32 µM); MIC [28]: 8 µg/mL (≈ 16.6 µM); MIC [29]: 32 µg/mL (≈ 66.6 µM); MIC [30]: 16 µg/mL (≈ 33.3 µM); MIC [31]: 32 µg/mL (≈ 66.6 µM); MIC [32]: 8 µg/mL (≈ 16.6 µM); MIC [33]: 8 µg/mL (≈ 16.6 µM); MIC [34]: 2 µg/mL (≈ 4.16 µM); MIC [35]: 16 µg/mL (≈ 33.3 µM) |
| Nc1nc(/C(=N/O)C(=O)N[C@@H]2C(=O)N3C(C(=O)O)=C(/C=C4\CCN([C@@H]5CCNC5)C4=O)CS[C@H]23)ns1 [CEFTOBIPROLE] | 4 (≈ 7.48 µM) | 4 (≈ 7.48 µM) | 16 (≈ 29.9 µM) | 2 (≈ 3.74 µM) | 4 (≈ 7.48 µM) | 4 (≈ 7.48 µM) | 4 (≈ 7.48 µM) | 4 (≈ 7.48 µM) | 16 (≈ 29.9 µM) | 8 (≈ 15 µM) | 4 (≈ 7.48 µM) | 8 (≈ 15 µM) | 4 (≈ 7.48 µM) | 16 (≈ 29.9 µM) | 2 (≈ 3.74 µM) | 8 (≈ 15 µM) | 4 (≈ 7.48 µM) | 4 (≈ 7.48 µM) | 8 (≈ 15 µM) | 4 (≈ 7.48 µM) | MIC [21]: 16 µg/mL (≈ 29.9 µM); MIC [22]: 4 µg/mL (≈ 7.48 µM); MIC [23]: 4 µg/mL (≈ 7.48 µM); MIC [24]: 4 µg/mL (≈ 7.48 µM); MIC [25]: 16 µg/mL (≈ 29.9 µM); MIC [26]: 2 µg/mL (≈ 3.74 µM); MIC50 [27]: 2 µg/mL (≈ 3.74 µM); MIC [28]: 16 µg/mL (≈ 29.9 µM); MIC [29]: 4 µg/mL (≈ 7.48 µM); MIC [30]: 4 µg/mL (≈ 7.48 µM); MIC [31]: 32 µg/mL (≈ 59.9 µM); MIC [32]: 16 µg/mL (≈ 29.9 µM); MIC [33]: 8 µg/mL (≈ 15 µM); MIC [34]: 2 µg/mL (≈ 3.74 µM); MIC [35]: 2 µg/mL (≈ 3.74 µM) |
